Data taken from the Deep4Chem optical property database.
One block for each compound: values may come before it.

Experiment: solvent given as SMILES

Compound: CN(C)c1ccc(/C=C/c2nc3ccccc3s2)cc1
emission maximum (in C1CCCCC1): 447 nm
emission maximum (in C1CCOC1): 482 nm
emission maximum (in C1COCCO1): 467 nm
emission maximum (in CC#N): 504 nm
emission maximum (in CC(C)O): 493 nm
emission maximum (in CCCCCC): 445 nm
emission maximum (in CCCCCCC): 446 nm
emission maximum (in CCO): 498 nm
emission maximum (in CCOC(C)=O): 477 nm
emission maximum (in CCOCC): 460 nm
emission maximum (in CN(C)C=O): 504 nm
emission maximum (in CO): 507 nm
emission maximum (in CS(C)=O): 513 nm
emission maximum (in O): 516 nm
emission maximum (in OCC(O)CO): 530 nm

Compound: CC1=[N+]2C(=C(c3ccc(C=O)cc3)c3ccc(C)n3[B-]2(F)F)C=C1c1cc2n(c1)[B-](F)(F)[N+]1=CC=CC1=C2c1c(C)cc(C)cc1C
emission maximum (in C1CCCCC1): 657 nm
emission maximum (in CCOC(C)=O): 669 nm

Compound: COc1ccc(C2=Cc3ccccc3P2(=O)c2ccccc2)cc1 (stereo unspecified)
emission maximum (in C1CCOC1): 443 nm
emission maximum (in ClCCl): 454 nm

Compound: CC[n+]1c(-c2ccccc2)c2cc(NC(N)=O)ccc2c2ccc(NC(N)=O)cc21
emission maximum (in O): 520 nm

Compound: C(#Cc1cccs1)C(C#Cc1cccs1)=Cc1ccc(C=C(C#Cc2cccs2)C#Cc2cccs2)s1
emission maximum (in ClC(Cl)Cl): 550 nm

Compound: CCCCCCN1C(=O)c2cccc3cc(/N=C\c4ccc(N5CCOCC5)cc4)cc(c23)C1=O
emission maximum (in ClC(Cl)Cl): 557 nm

Compound: c1ccc(-c2nc(-c3ccccc3)nc(-n3c4ccccc4c4cccc(-n5c6ccccc6c6ccccc65)c43)n2)cc1
emission maximum (in C1CCOC1): 477.86 nm
emission maximum (in Cc1ccccc1): 459.26 nm

Compound: CO[B-]1(OC)n2c(C)cc(C)c2C(c2ccc(I)cc2)=C2C(C)=CC(C)=[N+]21
emission maximum (in ClC(Cl)Cl): 517.6 nm

Compound: CN(C)c1ccc2cc3ccc(N(C)C)cc3nc2c1
emission maximum (in O): 530 nm

Compound: COc1ccc(-c2ccc(-c3ccccc3)cc2)cc1
emission maximum (in C1CCCCC1): 353 nm

Compound: Cc1c(C)c(-c2cccnc2)c(C)c(C)c1B(c1c(C)c(C)c(-c2cccnc2)c(C)c1C)c1c(C)c(C)c(-c2cccnc2)c(C)c1C
emission maximum (in ClCCl): 403 nm

Compound: c1ccc(-n2c(-c3ccc(-c4ccc5c(c4)C4(c6ccccc6-5)c5ccccc5-c5ccc(-c6ccc(-c7nc8ccccc8n7-c7ccccc7)cc6)c6cccc4c56)cc3)nc3ccccc32)cc1 (stereo unspecified)
emission maximum (in ClC(Cl)Cl): 440 nm

Compound: O=P(c1ccccc1)(c1ccccc1)n1c2ccccc2c2ccccc21
emission maximum (in C1CCOC1): 360 nm
emission maximum (in CC(C)=O): 406 nm
emission maximum (in Cc1ccccc1): 372 nm
emission maximum (in ClCCl): 355 nm

Compound: CCn1c2ccccc2c2cc(C#Cc3cc(C#Cc4ccc5c(c4)c4ccccc4n5CC)nc(OC)n3)ccc21
emission maximum (in C1CCOC1): 445 nm
emission maximum (in CCOC(C)=O): 442 nm
emission maximum (in CN(C)C=O): 499 nm
emission maximum (in Cc1ccccc1): 411 nm
emission maximum (in ClCCl): 467 nm

Compound: CCN(CC)c1ccc2cc(C#N)/c(=N\C(=O)c3ccc(C)cc3)oc2c1
emission maximum (in CCO): 530 nm
emission maximum (in ClCCl): 502 nm

Compound: CCCCCCCCCCCCN1C(=O)c2cccc3c(N(Cc4ccccn4)Cc4ccccn4)c4ccccc4c(c23)C1=O
emission maximum (in C1CCOC1): 583 nm
emission maximum (in CCCCCC): 555 nm
emission maximum (in CCO): 597 nm
emission maximum (in Cc1ccccc1): 573 nm
emission maximum (in ClCCl): 587 nm

Compound: c1cc2c3c(cccc3c1)C(N1CCOCCOCCN(C3=Nc4cccc5cccc3c45)CCOCC1)=N2
emission maximum (in CC#N): 590 nm

Compound: Nc1ccc(C#Cc2ccc3ccc4ccc(C#Cc5ccc(N)cc5)c5ccc2c3c45)cc1
emission maximum (in C1COCCO1): 476 nm
emission maximum (in CC(C)=O): 538 nm
emission maximum (in CCCCCC): 444 nm
emission maximum (in CCCCCCO): 534 nm
emission maximum (in CCO): 540 nm
emission maximum (in CCOC(C)=O): 506 nm
emission maximum (in CO): 557 nm
emission maximum (in Cc1ccccc1): 463 nm
emission maximum (in ClCCl): 492 nm

Compound: CNCCCN1c2ccccc2CCc2ccccc21
emission maximum (in CC#N): 348 nm
emission maximum (in CO): 356 nm
emission maximum (in O): 400 nm

Compound: CCCCN1c2ccccc2Sc2cc(/C=C\c3cc(=O)oc4ccc(C)cc34)ccc21
emission maximum (in ClC(Cl)Cl): 635 nm

Compound: CC1=[O+][B-]2(OC(=O)C(=O)O2)OC(c2c3ccccc3cc3ccccc23)=C1
emission maximum (in CC#N): 527 nm
emission maximum (in ClC(Cl)(Cl)Cl): 514 nm

Compound: c1ccc(-c2nn(-c3ccccc3)c3nc4ccc(N(c5ccccc5)c5cccc6ccccc56)cc4cc23)cc1
emission maximum (in C1CCCCC1): 484.73 nm
emission maximum (in C1CCOC1): 516 nm
emission maximum (in CC#N): 555.25 nm
emission maximum (in CC(C)=O): 538.21 nm
emission maximum (in CCCCCl): 509.68 nm
emission maximum (in CCCCOCCCC): 494.8 nm
emission maximum (in CN(C)C=O): 553.1 nm

Compound: F[B-]1(F)n2cccc2C=C2c3ccccc3C(c3ccc[nH]3)=[N+]21
emission maximum (in C1CCOC1): 596 nm
emission maximum (in CC#N): 594 nm
emission maximum (in CCCCCC): 588 nm
emission maximum (in CO): 592 nm
emission maximum (in Cc1ccccc1): 600 nm
emission maximum (in ClCCl): 599 nm

Compound: CCN(CC)c1ccc2cc(/C=C/C3=CC(/C=C/c4cc5ccc(N(CC)CC)cc5oc4=O)=[O+][B-](F)(F)O3)c(=O)oc2c1
emission maximum (in CC#N): 725 nm
emission maximum (in CC(C)=O): 710 nm
emission maximum (in CCOC(C)=O): 659 nm
emission maximum (in CN(C)C=O): 729 nm
emission maximum (in CS(C)=O): 741 nm
emission maximum (in Cc1ccccc1): 626 nm
emission maximum (in ClC(Cl)Cl): 669 nm
emission maximum (in ClCCl): 705 nm

Compound: O=C(O)c1ccccc1Nc1cccc(C(F)(F)F)c1
emission maximum (in C1CCCCC1): 406 nm
emission maximum (in C1CCOC1): 408 nm
emission maximum (in C1COCCO1): 410 nm
emission maximum (in CC#N): 426 nm
emission maximum (in CCOC(C)=O): 410 nm
emission maximum (in CN(C)C=O): 425 nm
emission maximum (in CO): 428 nm
emission maximum (in ClC(Cl)Cl): 426 nm

Compound: NC1=N/C(=N\c2ccccn2)c2cccc3cccc1c23
emission maximum (in ClCCl): 506 nm

Compound: O=C1NC(=O)c2c1c1c3ccccc3[nH]c1c1[nH]c3ccccc3c21
emission maximum (in C1CCOC1): 475 nm
emission maximum (in CC#N): 500 nm
emission maximum (in CC(C)OC(C)C): 450 nm
emission maximum (in CCCCOCCCC): 461 nm
emission maximum (in CCO): 550 nm
emission maximum (in CCOC(C)=O): 473 nm
emission maximum (in CN(C)C=O): 503 nm
emission maximum (in Cc1ccccc1): 465 nm
emission maximum (in ClCCl): 492 nm

Compound: CC(=O)c1ccc2ccc3cccc4ccc1c2c34
emission maximum (in C1CCOC1): 387 nm
emission maximum (in CC#N): 390 nm
emission maximum (in CCCCCC): 387 nm
emission maximum (in CCO): 436 nm
emission maximum (in CN(C)C=O): 392 nm
emission maximum (in CO): 443 nm
emission maximum (in Cc1ccccc1): 392 nm
emission maximum (in ClCCl): 396 nm

Compound: COc1ccc2cc(/C=C/C3=C4CCc5ccccc5C4=[O+][B-](F)(F)O3)ccc2c1
emission maximum (in ClCCl): 564 nm

The next lines start with the values.

emission maximum (in ClC(Cl)Cl): 613 nm
Compound: COc1ccc(-c2oc3cccc4c5c(-c6ccc(OC)c(OC)c6)/c(=N/S(=O)(=O)C(F)(F)F)oc6cccc(c2c34)c65)cc1OC

emission maximum (in ClC(Cl)Cl): 421 nm
Compound: c1ccc2c(c1)-c1ccccc1C21c2cc(-c3ccc4ccc5cccc6ccc3c4c56)ccc2-c2ccc(-c3ccc4ccc5cccc6ccc3c4c56)cc21

emission maximum (in CCO): 539 nm
Compound: CCOC(=O)c1cc(C(=O)OCC)c2cc(NC)ccc2n1

emission maximum (in ClCCl): 465 nm
Compound: CC(C)(C)c1ccc2c(c1)c1cc(C(C)(C)C)ccc1n2-c1ccc(N(c2ccc(-c3ccc(-c4ccc(N(c5ccc(-n6c7ccc(C(C)(C)C)cc7c7cc(C(C)(C)C)ccc76)cc5)c5ccc(-n6c7ccc(C(C)(C)C)cc7c7cc(C(C)(C)C)ccc76)cc5)cc4)s3)cc2)c2ccc(-n3c4ccc(C(C)(C)C)cc4c4cc(C(C)(C)C)ccc43)cc2)cc1

emission maximum (in ClCCl): 486 nm
Compound: CCOC(=O)/N=c1/oc2cc(N(CC)CC)ccc2cc1C#N

emission maximum (in C1CCOC1): 375.8 nm
Compound: CCCCCCCCCCCCn1c(-c2cc(-c3nc4ccc(C)cc4n3CCCCCCCCCCCC)cc(-c3nc4ccc(C)cc4n3CCCCCCCCCCCC)c2)nc2ccc(C)cc21

emission maximum (in ClCCl): 528 nm
Compound: CCCCCCc1cc2c3c(c1)c(=C1c4ccccc4S(=O)(=O)c4ccccc41)c1cc(CCCCCC)cc4c1N3c1c(cc(CCCCCC)cc1c4=C1c3ccccc3S(=O)(=O)c3ccccc31)c2=C1c2ccccc2S(=O)(=O)c2ccccc21

emission maximum (in ClCCl): 486 nm
Compound: CCCCC(CC)Cn1c2cc(C#N)ccc2c2ccc(C#Cc3cc(C#Cc4ccc5c6ccc(C#N)cc6n(CC(CC)CCCC)c5c4)c4ccc5c(C#Cc6ccc7c8ccc(C#N)cc8n(CC(CC)CCCC)c7c6)cc(C#Cc6ccc7c8ccc(C#N)cc8n(CC(CC)CCCC)c7c6)c6ccc3c4c65)cc21 (stereo unspecified)

emission maximum (in ClC(Cl)Cl): 675 nm
Compound: CCCCCCCCC1(CCCCCCCC)c2cc3c(cc2-c2sc(-c4ccc(/C=C5\SC(N6CCCCC6)=NC5=O)c5nsnc45)cc21)C(CCCCCCCC)(CCCCCCCC)c1cc(-c2ccc(/C=C4\SC(N5CCCCC5)=NC4=O)c4nsnc24)sc1-3

emission maximum (in CC#N): 417.83 nm
emission maximum (in CCO): 411.74 nm
emission maximum (in ClCCl): 536 nm
Compound: CN(C)c1cc(-c2ccc(C#Cc3ccncc3)cc2)cc2ccccc12

emission maximum (in ClCCl): 498 nm
Compound: COc1ccc2c(c1)c1cc(OC)ccc1c1c2c2c(C(=O)NC(C)(C)C)ccc(C(=O)NC(C)(C)C)c2c2c3ccc(OC)cc3c3cc(OC)ccc3c21

emission maximum (in C1CCOC1): 748 nm
emission maximum (in CS(C)=O): 771 nm
emission maximum (in ClCCl): 735 nm
Compound: COc1cc(OC)cc(C2=C3C(C)=C(I)C(/C=C/c4c[nH]c5ccccc45)=[N+]3[B-](F)(F)n3c(/C=C/c4c[nH]c5ccccc45)c(I)c(C)c32)c1

emission maximum (in CC#N): 524 nm
Compound: c1cc2oc3cccc4oc5cccc6oc(c1)c2[c+](c34)c65

emission maximum (in C1CCCCC1): 472 nm
emission maximum (in C1CCOC1): 519 nm
emission maximum (in CC#N): 536 nm
emission maximum (in CO): 522 nm
emission maximum (in CS(C)=O): 552 nm
emission maximum (in ClCCl): 535 nm
emission maximum (in O): 426 nm
Compound: CC1=N/C(=C\c2ccccc2N(C)C)C(=O)N1C

emission maximum (in ClCCl): 401 nm
Compound: CCCCN1c2ccccc2B(c2ccccc2C(F)(F)F)c2ccccc21

emission maximum (in ClCCl): 412 nm
Compound: CCn1c2ccc(/C=C(\C#N)c3ccccc3)cc2c2cc(/C=C(\C#N)c3ccccc3)ccc21

emission maximum (in C1CCOC1): 525 nm
emission maximum (in CC#N): 599 nm
emission maximum (in CCCCCCC): 445 nm
emission maximum (in CS(C)=O): 609 nm
emission maximum (in ClCCl): 563 nm
Compound: C(=C\c1ccncn1)/c1ccc(-c2ccc(N(c3ccccc3)c3ccccc3)cc2)cc1

emission maximum (in ClC(Cl)Cl): 422 nm
Compound: Cc1ccc2c3ccc(C)cc3c3cc4c(C)cc(=O)oc4cc3c2c1
